Data on 13 molecules can be found in patent US5401749A, “9-amino-1,4ethano-1,2,3,4-tetrahydroacridine and related compounds” (Hoechst-Roussel Pharmaceuticals Inc., priority 1988, dated 1995).

Like-named read-outs stand apart in the source and are kept apart here.

The target of one experiment is Acetylcholinesterase (Homo sapiens, UniProt P22303). Briefly: Acetylcholinesterase Inhibition Assay (photometric method of Ellman et al.). Format: biochemical.
Experiment [1] concerns Scopolamine Induced Memory Deficit. Briefly: Dark Avoidance Assay (reversal of scopolamine induced memory deficit). Particulars: mice, s.c., tested again after 24 hours. The experiment is classed as in vivo. As for the experimental part:
This utility can also be ascertained by determining the ability of these compounds to restore cholinergically deficient memory in the Dark Avoidance Assay. In this assay mice are tested for their ability to remember an unpleasant stimulus for a period of 24 hours. A mouse is placed in a chamber that contains a dark compartment; a strong incadescent light drives it to the dark compartment, where an electric shock is administered through metal plates on the floor. The animal is removed from the testing apparatus and tested again, 24 hours later, for the ability to remember the electric shock.
If scopolamine, an anticholinergic that is known to cause memory impairment, is administered before an animal's initial exposure to the test chamber, the animal re-enters the dark compartment shortly after being placed in the test chamber 24 hours later. This effect of scopolamine is blocked by an active test compound, resulting in a greater interval before re-entry into the dark compartment.
The test results are expressed as the percent of a group of animals in which the effect of scopolamine is blocked, as manifested by an increased interval between being placed in the test chamber and re-entering the dark compartment. Results of Dark Avoidance Assay for some of the compounds of this invention are presented in Table 2 along with a result for a reference compound.

Setting [2] is: photometric method of Ellman et al., read-out: Acetylcholinesterase Inhibition IC50.

Acetylcholinesterase, sequence (P22303 32-614): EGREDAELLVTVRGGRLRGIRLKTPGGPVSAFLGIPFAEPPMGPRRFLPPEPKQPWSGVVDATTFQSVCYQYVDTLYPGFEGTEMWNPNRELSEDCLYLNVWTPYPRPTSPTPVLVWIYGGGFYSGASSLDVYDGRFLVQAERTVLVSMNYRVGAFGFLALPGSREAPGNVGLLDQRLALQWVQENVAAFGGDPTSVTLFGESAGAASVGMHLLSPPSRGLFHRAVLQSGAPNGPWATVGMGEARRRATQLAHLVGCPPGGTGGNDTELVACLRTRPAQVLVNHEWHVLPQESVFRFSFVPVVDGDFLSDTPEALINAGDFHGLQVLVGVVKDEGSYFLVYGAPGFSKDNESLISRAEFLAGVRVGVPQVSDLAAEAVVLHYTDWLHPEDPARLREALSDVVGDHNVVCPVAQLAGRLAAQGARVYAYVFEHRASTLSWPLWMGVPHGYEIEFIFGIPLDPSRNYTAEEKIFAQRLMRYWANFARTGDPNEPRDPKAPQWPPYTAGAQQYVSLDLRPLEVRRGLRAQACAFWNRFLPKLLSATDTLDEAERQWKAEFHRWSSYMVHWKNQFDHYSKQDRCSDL

As to `Nc1c2c(nc3ccccc13)C1C=CC2CC1` (centres unmarked) [9-Amino-1,4-dihydro-1,4-ethanoacridine], the half-inhibitory concentration (IC50) on Acetylcholinesterase (setting [2]) stood at 1.4 µM.

Take `Nc1c2c(nc3ccccc13)C1CCC2CC1` [9-Amino-1,4-ethano-1,2,3,4-tetrahydroacridine]: the half-maximal inhibitory concentration (IC50) on Acetylcholinesterase (setting [2]) is 6.6 µM.

On to `Nc1c2c(nc3cc(C(F)(F)F)ccc13)C1CCC2C1` (centres unmarked) [9-Amino-1,4-methano-1,2,3,4-tetrahydro-6-trifluoromethylacridine], for which the “% of Animals with Scopolamine Induced Memory Deficit Reversal” value (“% of Animals” below) in experiment [1] (0.16 mg/kg of body weight) amounted to 20%. This molecule also gave an IC50 on Acetylcholinesterase of 4 µM.

Regarding `Nc1c2c(nc3ccccc13)C1CCC2C1` (centres unmarked) [9-Amino-1,4-methano-1,2,3,4-tetrahydroacridine], the “% of Animals” value in experiment [1] (2.5 mg/kg of body weight) came out at 40%.

With `Cc1ccc2c(N)c3c(nc2c1)C1CCC3C1` (centres unmarked) [9-Amino-1,4-methano-6-methyl-1,2,3,4-tetrahydroacridine], the “% of Animals” value in experiment [1] (2.5 mg/kg of body weight) is recorded as 36%. The molecule also returned an IC50 against Acetylcholinesterase of 0.3 µM.

For the molecule `Nc1c2c(nc3cc(F)ccc13)C1CCC2C1` (centres unmarked) [9-Amino-6-fluoro-1,4-methano-1,2,3,4-tetrahydroacridine], in experiment [1] (0.63 mg/kg of body weight), the “% of Animals” value stood at 9%. For the same molecule, the IC50 at Acetylcholinesterase stood at 0.08 µM.

For `C1=CC2CCC1c1nc3ccccc3c(NCc3ccccc3)c12` (centres unmarked) [9-Benzylamino-1,4-dihydro-1,4-ethanoacridine], the IC50 at Acetylcholinesterase (setting [2]) was 52 µM.

For the molecule `c1ccc(CNc2c3c(nc4ccccc24)C2CCC3CC2)cc1` [9-Benzylamino-1,4-ethano-1,2,3,4-tetrahydroacridine], the half-inhibitory concentration (IC50) at Acetylcholinesterase (setting [2]) is 78 µM.

On to `FC(F)(F)c1ccc2c(NCc3ccccc3)c3c(nc2c1)C1CCC3C1` (centres unmarked) [9-Benzylamino-1,4-methano-1,2,3,4-tetrahydro-6-trifluoromethylacridine], for which the IC50 on Acetylcholinesterase (setting [2]) is more than 1000 µM.

In the case of `c1ccc(CNc2c3c(nc4ccccc24)C2CCC3C2)cc1` (centres unmarked) [9-Benzylamino-1,4-methano-1,2,3,4-tetrahydroacridine], the IC50 on Acetylcholinesterase (setting [2]) is more than 1000 µM.

`Cc1ccc2c(NCc3ccccc3)c3c(nc2c1)C1CCC3C1` (centres unmarked) [9-Benzylamino-1,4-methano-6-methyl-1,2,3,4-tetrahydroacridine]: the IC50 at Acetylcholinesterase (setting [2]) turned out to be 31 µM.

Take `c1ccc(Nc2c3c(nc4ccccc24)C2CCC3C2)cc1` (centres unmarked) [9-Phenylamino-1,4-methano-1,2,3,4-tetrahydroacridine]: the “% of Animals” value in experiment [1] (0.16 mg/kg of body weight) was determined as 20%. On Acetylcholinesterase, this molecule showed an IC50 of more than 1000 µM.

On to `CNC(=O)Oc1ccc2c(c1)[C@]1(C)CCN(C)[C@@H]1N2C` [Physostigmine, reference compound], for which, in experiment [1] (0.31 mg/kg of body weight), the “% of Animals” value is given as 20%.
